We go through five molecules from patent publication US7547759B2, “Induction of tumor immunity by variants of folate binding protein” (Board of Regents, The University of Texas System, priority 2001, dated 2009).

Entries after “also recorded” stand apart in the source; their conditions may differ.

Assay [1] concerns HLA-A2. Description: HLA-A2 stabilization by FBP epitope E39 variants. It counts as binding, human. The following applies: FIG. 1; compared with wild-type E39. The source says: (§1) The HLA-A2 stabilizing ability of the variant peptides has also been determined (FIG. 1). […] In contrast, substitutions at position 1 increase the binding affinity of the peptide. The results in FIG. 2 show the cytolytic activity of J65-induced CTL compared with E39-induced CTL.

The test system of assay [2] is peripheral blood mononuclear cells (PBMC). Description: Expansion of PBMC stimulated with FBP peptide E39 and its variants (live cell counts). It counts as cell-based, human. The source says: FIG. 4 illustrates expansion of PBMCs stimulated with FBP peptide E39 and its variants.
(§2) To identify which of E39 variants induced higher cell expansion, PBMC from the same donor were stimulated three times with the corresponding peptide, and the resulting live cells were counted a week after each stimulation. […] Similar results were obtained with J65 in another donor (FIG. 5).

Assay [3] shares this test system. Description: Specific IL-2 induction in PBMC by priming with E39 variants. Particulars: PBMC of responding donor; compared with wild-type peptide E39; FIG. 3. It counts as cell-based, human.
Text: FIG. 3 illustrates specific interleukin 2 (IL-2) induction in PBMCs by priming with E39 variants.
as §2

Assay [4] has the same test system. Description: IFN-γ induction in PBMC with multiple peptide stimulations. It counts as cell-based, human.
Text: FIG. 2A illustrates IFN-γ induction in peripheral blood mononuclear cells (PBMC) with multiple stimulations with J65 or E39.
as §1
(§3) To address the effects of FBP variants on induction of CTL activity, PBMC cultures from the healthy donor stimulated three times with J65 were split in three and restimulated with either E39 or J65 or J77. A control culture was made of the same PBMC stimulated three times with E39 and restimulated with E39 for the fourth time. […] It was recently reported that memory CTL reacting with the tumor Ag such as FBP are present in the blood of healthy individuals (Lee et al., 2000). These cells can be easily activated by stimulation with the corresponding peptide presented on dendritic cells (Kim et al., 1999). To evaluate the stimulating ability of the analogs J65 and J77, PBMC from a responding donor were stimulated with E39, J65 and J77.

Assay [5] has the same test system. Description: CTL activity in PBMC with multiple peptide stimulations. The following applies: for CTL activity: recognition of E39: healthy donor PBMC stimulated three times with the peptide, then restimulated with E39. It counts as cell-based, human.
Text: FIG. 2B illustrates CTL activity in PBMC with multiple stimulations with J65 or E39.
CTL activity can be assessed by methods described herein or as would be known to one of skill in the art. For example, CTLs may be assessed in freshly isolated peripheral blood mononuclear cells (PBMC), in a phytohaemaglutinin-stimulated IL-2 expanded cell line established from PBMC (Bernard et at., 1998) or by T cells isolated from a previously immunized subject and restimulated for 6 days with DC infected with an adenovirus vector containing antigen using standard 4 h 51^Cr release microtoxicity assays. In another fluorometric assay developed for detecting cell-mediated cytotoxicity, the fluorophore used is the non-toxic molecule ALAMARBLUE (dye) (Nociari et at., 1998). The ALAMARBLUE (dye) is fluorescently quenched (i.e., low quantum yield) until mitochondrial reduction occurs, which then results in a dramatic increase in the alamarBlue fluorescence intensity (i.e., increase in the quantum yield).
as §3

Assay [6] concerns the target HLA-A2 (human). Kind of assay: HLA-A2 stabilization assay (FIG. 1).
Where [7] appears, read: same donor, stimulated three times with peptide, live cells counted a week after each stimulation, FIG. 4.

As for EIWTFSTKV [J65, E39 variant H5→F, Y7→T], the HLA-A2 stabilizing ability result in assay [1] is recorded as “almost half of the stabilizing ability of E39”. For the same molecule, the “cell expansion of PBMC cultures” value in assay [2] (another donor, FIG. 5) was “expanded faster”; in assay [2] (setting [7]), “increased faster in numbers”. Besides, the IL-2 induction entry in assay [3] is “lower levels of IL-2”. In addition, the IFN-γ induction result in assay [4] (3×J65 stimulated PBMC cultures restimulated with the peptide, FIG. 2) was “weaker inducer of IFN-γ”. The “IFN-γ secretion elicited by wild-type epitope E39 in peptide-primed CTL” value in assay [4] (CTL primed with the peptide, then stimulated with E39) is recorded as “higher”. For the same molecule, the “CTL activity: recognition of E39” value in assay [5] was “significantly higher recognition of E39; also recorded: higher CTL activity”.

EIWTFSYKV [J78, E39 variant H5→F]: the “cell expansion of PBMC cultures” value in assay [2] (another donor, FIG. 5) was “expanded, but at a slower rate”; in assay [2] (setting [7]), “proliferated slower than control cultures”.

As for EIWTHSTKV [J77, E39 variant Y7→T], the “cell expansion of PBMC cultures” value in assay [2] (another donor, FIG. 5) is on record as “expanded, but at a slower rate”; in assay [2] (setting [7]), “proliferated slower than control cultures”. In assay [3], the IL-2 induction entry is listed as “lower levels of IL-2”. The CTL activity entry in assay [5] (healthy donor PBMC stimulated three times with J65 (3×J65), restimulated with the peptide) is reported as “significantly lower CTL activity”.

Take EIWTHSYKV [E39, reference compound]: the “cell expansion of PBMC cultures” value is on record as “died after the third stimulation” in assay [2] (another donor, FIG. 5) and “initially expanded faster than other cultures” in assay [2] (setting [7]). Moreover, the “CTL activity: recognition of E39” value in assay [5] is reported as “moderate weak recognition of E39”.

In the case of EIWTFSTKV [J65 (variant of FBP epitope E39, H5→F, Y7→T)], in assay [6], the HLA-A2 stabilizing ability relative to E39 is 0.5 fold of E39.
